In patent publication EP4635500A1, “THERAPEUTIC AGENT FOR BACTERIAL INFECTION” (Sumitomo Pharma Co., Ltd., priority 2022, dated 2024):
Converted amounts (≈) assume the structure as drawn. Like-named read-outs stand apart in the source and are kept apart here.

Tests used:
[1] = tested on: A. baumannii; test: MIC, broth microdilution, CDC/FDA Antibiotic Resistance Isolate Bank (Example 7, Tables 9, 13, 14); assay type: cell-based, Acinetobacter baumannii; settings: for MIC: read-out: MIC
[2] = tested on: Enterobacterales; test: MIC, broth microdilution, CDC/FDA Antibiotic Resistance Isolate Bank (Example 7, Tables 8, 11, 12); assay type: cell-based; settings: for MIC50: read-out: MIC50; for MIC90: read-out: MIC90; for MIC: read-out: MIC
[3] = 154 strains of Enterobacterales
[4] = carbapenemase-producing Enterobacterales, Metallo-β-lactamase (N = 47)
[5] = carbapenemase-producing Enterobacterales, Serine carbapenemase (N=61)

CN(C)c1cc(NC(=O)CNC(C)(C)C)c(O)c2c1C[C@H]1C[C@H]3[C@H](N(C)C)C(O)=C(C(N)=O)C(=O)[C@@]3(O)C(O)=C1C2=O [Tigecycline, tigecycline]
MICrange ([1]; 55 isolates of A. baumannii): 0.25 to 2 µg/mL
MIC ([1]; Acinetobacter baumannii, A. baumannii KUB No. 5567, AR Bank #70, OXA-58, OXA-100): 0.25 µg/mL (≈ 0.427 µM)
MIC ([1]; Acinetobacter baumannii, A. baumannii KUB No. 5575, AR Bank #78, OXA-71): 2 µg/mL (≈ 3.41 µM)
MIC ([1]; Acinetobacter baumannii, A. baumannii KUB No. 5580, AR Bank #83, OXA-23, OXA-69, NDM-1): 0.5 µg/mL (≈ 0.854 µM)
MIC ([1]; Acinetobacter baumannii, A. baumannii KUB No. 5585, AR Bank #88, OXA-64, NDM-1): 0.25 µg/mL (≈ 0.427 µM)
MIC ([1]; Acinetobacter baumannii, A. baumannii KUB No. 5598, AR Bank #101, OXA-24, OXA-65): 1 µg/mL (≈ 1.71 µM)
MIC ([1]; Acinetobacter baumannii, A. baumannii KUB No. 5599, AR Bank #102, OXA-66): 1 µg/mL (≈ 1.71 µM)
MIC ([1]; Acinetobacter baumannii, A. baumannii KUB No. 5706, AR Bank #273, OXA-23, OXA-66): 0.5 µg/mL (≈ 0.854 µM)
MIC ([1]; Acinetobacter baumannii, A. baumannii KUB No. 5707, AR Bank #274, OXA-66, OXA-72): 1 µg/mL (≈ 1.71 µM)
MIC ([1]; Acinetobacter baumannii, A. baumannii KUB No. 5708, AR Bank #275, OXA-23, OXA-66): 0.5 µg/mL (≈ 0.854 µM)
MIC ([1]; Acinetobacter baumannii, A. baumannii KUB No. 5709, AR Bank #276, no carbapenemase genes (-)): 1 µg/mL (≈ 1.71 µM)
MIC ([1]; Acinetobacter baumannii, A. baumannii KUB No. 5710, AR Bank #277, OXA-24, OXA-65): 1 µg/mL (≈ 1.71 µM)
MIC ([1]; Acinetobacter baumannii, A. baumannii KUB No. 5711, AR Bank #278, OXA-23, OXA-66): 0.5 µg/mL (≈ 0.854 µM)
MIC ([1]; Acinetobacter baumannii, A. baumannii KUB No. 5712, AR Bank #279, OXA-23, OXA-66): 0.5 µg/mL (≈ 0.854 µM)
MIC ([1]; Acinetobacter baumannii, A. baumannii KUB No. 5713, AR Bank #280, OXA-66): 1 µg/mL (≈ 1.71 µM)
MIC ([1]; Acinetobacter baumannii, A. baumannii KUB No. 5714, AR Bank #281, OXA-82): 2 µg/mL (≈ 3.41 µM)
MIC ([1]; Acinetobacter baumannii, A. baumannii KUB No. 5715, AR Bank #282, OXA-23, OXA-66): 0.5 µg/mL (≈ 0.854 µM)
MIC ([1]; Acinetobacter baumannii, A. baumannii KUB No. 5716, AR Bank #283, OXA-23, OXA-66): 1 µg/mL (≈ 1.71 µM)
MIC ([1]; Acinetobacter baumannii, A. baumannii KUB No. 5717, AR Bank #284, OXA-24, OXA-65): 0.5 µg/mL (≈ 0.854 µM)
MIC ([1]; Acinetobacter baumannii, A. baumannii KUB No. 5718, AR Bank #285, OXA-24, OXA-65): 0.5 µg/mL (≈ 0.854 µM)
MIC ([1]; Acinetobacter baumannii, KUB No. 5719, AR Bank #286): 1 µg/mL (≈ 1.71 µM)
MIC ([1]; Acinetobacter baumannii, KUB No. 5720, AR Bank #287): 0.5 µg/mL (≈ 0.854 µM)
MIC ([1]; Acinetobacter baumannii, KUB No. 5721, AR Bank #288): 2 µg/mL (≈ 3.41 µM)
MIC ([1]; Acinetobacter baumannii, KUB No. 5722, AR Bank #259): 1 µg/mL (≈ 1.71 µM)
MIC ([1]; Acinetobacter baumannii, KUB No. 5723, AR Bank #290): 0.5 µg/mL (≈ 0.854 µM)
MIC ([1]; Acinetobacter baumannii, KUB No. 5724, AR Bank #291): 1 µg/mL (≈ 1.71 µM)
MIC ([1]; Acinetobacter baumannii, KUB No. 5725, AR Bank #292): 0.25 µg/mL (≈ 0.427 µM)
MIC ([1]; Acinetobacter baumannii, KUB No. 5726, AR Bank #293): 2 µg/mL (≈ 3.41 µM)
MIC ([1]; Acinetobacter baumannii, KUB No. 5727, AR Bank #294): 0.5 µg/mL (≈ 0.854 µM)
MIC ([1]; Acinetobacter baumannii, KUB No. 5728, AR Bank #295): 1 µg/mL (≈ 1.71 µM)
MIC ([1]; Acinetobacter baumannii, KUB No. 5729, AR Bank #296): 1 µg/mL (≈ 1.71 µM)
MIC ([1]; Acinetobacter baumannii, KUB No. 5730, AR Bank #297): 2 µg/mL (≈ 3.41 µM)
MIC ([1]; Acinetobacter baumannii, KUB No. 5731, AR Bank #298): 0.5 µg/mL (≈ 0.854 µM)
MIC ([1]; Acinetobacter baumannii, KUB No. 5732, AR Bank #299): 1 µg/mL (≈ 1.71 µM)
MIC ([1]; Acinetobacter baumannii, KUB No. 5733, AR Bank #300): 0.5 µg/mL (≈ 0.854 µM)
MIC ([1]; Acinetobacter baumannii, KUB No. 5734, AR Bank #301): 1 µg/mL (≈ 1.71 µM)
MIC ([1]; Acinetobacter baumannii, KUB No. 5735, AR Bank #302): 1 µg/mL (≈ 1.71 µM)
MIC ([1]; Acinetobacter baumannii, KUB No. 5736, AR Bank #303): 1 µg/mL (≈ 1.71 µM)
MIC ([1]; Acinetobacter baumannii, KUB No. 5737, AR Bank #304): 1 µg/mL (≈ 1.71 µM)
MIC ([1]; Acinetobacter baumannii, KUB No. 5738, AR Bank #305): 0.25 µg/mL (≈ 0.427 µM)
MIC ([1]; Acinetobacter baumannii, KUB No. 5739, AR Bank #306): 1 µg/mL (≈ 1.71 µM)
MIC ([1]; Acinetobacter baumannii, KUB No. 5740, AR Bank #307): 1 µg/mL (≈ 1.71 µM)
MIC ([1]; Acinetobacter baumannii, KUB No. 5741, AR Bank #308): 0.5 µg/mL (≈ 0.854 µM)
MIC ([1]; Acinetobacter baumannii, KUB No. 5742, AR Bank #309): 0.5 µg/mL (≈ 0.854 µM)
MIC ([1]; Acinetobacter baumannii, KUB No. 5743, AR Bank #310): 1 µg/mL (≈ 1.71 µM)
MIC ([1]; Acinetobacter baumannii, KUB No. 5744, AR Bank #311): 0.5 µg/mL (≈ 0.854 µM)
MIC ([1]; Acinetobacter baumannii, KUB No. 5745, AR Bank #312): 0.25 µg/mL (≈ 0.427 µM)
MIC ([1]; Acinetobacter baumannii, KUB No. 5746, AR Bank #313): 0.5 µg/mL (≈ 0.854 µM)
MIC50 ([1]; Acinetobacter baumannii, 55 isolates of A. baumannii, read-out: MIC50): 1 µg/mL (≈ 1.71 µM)
MIC80 ([1]; Acinetobacter baumannii, 55 isolates of A. baumannii, read-out: MIC80): 1 µg/mL (≈ 1.71 µM)
MIC90 ([1]; Acinetobacter baumannii, 55 isolates of A. baumannii, read-out: MIC90): 1 µg/mL (≈ 1.71 µM)
Number of isolates at MIC ≤[…] ([1]; MIC distribution, metallo-β-lactamase-producing A. baumannii, inhibitor µg/mL in parentheses): 3
MICrange [2, 3]: 0.12 to 4 µg/mL
MIC50 [2, 3]: 0.5 µg/mL (≈ 0.854 µM)
MIC80 ([2]; 154 strains of Enterobacterales, read-out: MIC80): 1 µg/mL (≈ 1.71 µM)
MIC90 [2, 3]: 2 µg/mL (≈ 3.41 µM)
MIC ([2]; Enterobacter cloacae, Enterobacter cloacae complex, KUB No. 5661, AR Bank # 164): 0.5 µg/mL (≈ 0.854 µM)
MIC ([2]; Enterobacter cloacae, KUB No. 5660, AR Bank # 163): 4 µg/mL (≈ 6.83 µM)
MIC ([2]; Enterobacter cloacae, KUB No. 5761, AR Bank # 365): 2 µg/mL (≈ 3.41 µM)
MIC ([2]; Enterobacter cloacae, KUB No. 5762, AR Bank # 366): 2 µg/mL (≈ 3.41 µM)
MIC ([2]; Enterobacter cloacae, KUB No. 5763, AR Bank # 367): 0.5 µg/mL (≈ 0.854 µM)
MIC ([2]; Enterobacter cloacae, KUB No. 5778, AR Bank # 432): 1 µg/mL (≈ 1.71 µM)
MIC ([2]; Escherichia coli, KUB No. 5764, AR Bank # 368): 0.25 µg/mL (≈ 0.427 µM)
MIC ([2]; Escherichia coli, KUB No. 5765, AR Bank # 369): 0.25 µg/mL (≈ 0.427 µM)
MIC ([2]; Escherichia coli, KUB No. 5766, AR Bank # 370): 0.25 µg/mL (≈ 0.427 µM)
MIC ([2]; Escherichia coli, KUB No. 5767, AR Bank # 371): 0.25 µg/mL (≈ 0.427 µM)
MIC ([2]; Escherichia coli, KUB No. 5768, AR Bank # 372): 0.5 µg/mL (≈ 0.854 µM)
MIC ([2]; Escherichia coli, KUB No. 5769, AR Bank # 373): 0.5 µg/mL (≈ 0.854 µM)
MIC ([2]; Escherichia coli, KUB No. 5770, AR Bank # 374): 0.5 µg/mL (≈ 0.854 µM)
MIC ([2]; Escherichia coli, KUB No. 5774, AR Bank # 378): 0.25 µg/mL (≈ 0.427 µM)
MIC ([2]; Escherichia coli, KUB No. 5779, AR Bank # 433): 0.5 µg/mL (≈ 0.854 µM)
MIC ([2]; Escherichia coli, KUB No. 5780, AR Bank # 434): 0.5 µg/mL (≈ 0.854 µM)
MIC ([2]; Escherichia coli, KUB No. 5781, AR Bank # 435): 0.5 µg/mL (≈ 0.854 µM)
MIC ([2]; Escherichia, KUB No. 57, AR Bank # 436 (row cut off)): 0.5 µg/mL (≈ 0.854 µM)
MIC ([2]; Klebsiella aerogenes, Enterobacter aerogenes, KUB No. 5777, AR Bank # 431): 1 µg/mL (≈ 1.71 µM)
MIC ([2]; Klebsiella oxytoca, KUB No. 5771, AR Bank # 375): 0.5 µg/mL (≈ 0.854 µM)
MIC ([2]; Klebsiella oxytoca, KUB No. 5776, AR Bank # 380): 2 µg/mL (≈ 3.41 µM)
MIC ([2]; Klebsiella pnemnonine, KUB No. 5758, AR Bank # 362): 1 µg/mL (≈ 1.71 µM)
MIC ([2]; Klebsiella pneumoniae, KUB No. 5757, AR Bank # 361): 1 µg/mL (≈ 1.71 µM)
MIC ([2]; Klebsiella pneumoniae, KUB No. 5759, AR Bank # 363): 0.5 µg/mL (≈ 0.854 µM)
MIC ([2]; Klebsiella pneumoniae, KUB No. 5760, AR Bank # 364): 1 µg/mL (≈ 1.71 µM)
MIC ([2]; Klebsiella pneumoniae, KUB No. 5772, AR Bank # 376): 1 µg/mL (≈ 1.71 µM)
MIC ([2]; Proteus mirabilis, KUB No. 5773, AR Bank # 377): 4 µg/mL (≈ 6.83 µM)
MIC ([2]; Proteus mirabilis, KUB No. 5775, AR Bank # 379): 0.5 µg/mL (≈ 0.854 µM)
MIC50 [2, 4]: 0.5 µg/mL (≈ 0.854 µM)
MIC90 [2, 4]: 2 µg/mL (≈ 3.41 µM)
MIC50 [2, 5]: 1 µg/mL (≈ 1.71 µM)
MIC90 [2, 5]: 2 µg/mL (≈ 3.41 µM)
MIC90 ([2]; metallo-β-lactamase-producing strains of Enterobacterales): 2 µg/mL (≈ 3.41 µM)
